We go through one molecule from US20200354348A1, “SEMISYNTHETIC AURONES AND METHODS OF USE THEREOF” (University of Kentucky Research Foundation, priority 2018, published 2020).

One series concerns A549(ATCC). Briefly: NCI60 screening. The class given is cell-based. The note with it: Homo sapiens, Non-Small Cell Lung Cancer.
A further series deals with EKVX. Briefly: NCI60 screening. The note with it: Homo sapiens, Non-Small Cell Lung Cancer. The class given is cell-based.
The subject of another series is NCI-H226. Briefly: NCI60 screening. The class given is cell-based. The note with it: Homo sapiens, Non-Small Cell Lung Cancer.
The subject of the next series is NCI-H522. Briefly: NCI60 screening. It is filed as cell-based. Particulars: Homo sapiens, Non-Small Cell Lung Cancer.
The next series relates to HCC-2998. The experiment in a line: NCI60 screening. The class given is cell-based. The note with it: Homo sapiens, Colon Cancer.
Another series deals with OVCAR-4. Briefly: NCI60 screening. The class given is cell-based. The note with it: Homo sapiens, Ovarian Cancer.
A further series relates to A498. Briefly: NCI60 screening. Particulars: Homo sapiens, Renal Cancer. It is filed as cell-based.
The test system of the next series is CCRF-CEM. The experiment in a line: IC50 in leukemia cell lines. The class given is cell-based. Particulars: Homo sapiens, T-ALL.
In another series the test system is DND41. Briefly: IC50 in leukemia cell lines. The note with it: DND41, T-ALL. It is filed as cell-based.
A further series has as its system Jurkat. The experiment in a line: IC50 in leukemia cell lines. Particulars: Homo sapiens, T-ALL. It is filed as cell-based.
Another series deals with HBP-ALL. The experiment in a line: IC50 in leukemia cell lines. The class given is cell-based. Particulars: T-ALL.
The subject of the next series is Loucy. Briefly: IC50 in leukemia cell lines. Particulars: T-ALL. It is filed as cell-based.
The subject of a further series is MOLT-4. Briefly: IC50 in leukemia cell lines. The note with it: Homo sapiens; Molt-4, T-ALL. It is filed as cell-based.
The next series relates to Molt-16. Briefly: IC50 in leukemia cell lines. Particulars: Homo sapiens; Molt-16, T-ALL. The class given is cell-based.
In a further series the test system is Nalm-16. Briefly: IC50 in leukemia cell lines. The class given is cell-based. Particulars: NALM16; Nalm-16, B-ALL.
The subject of a further series is NCI-BL2009. The experiment in a line: IC50 in leukemia cell lines. The class given is cell-based. The note with it: NCI-BL2009, Normal B-Lymphoblast.
The subject of a further series is PC-3 and LS174T cells. Briefly: Proliferation inhibition, Table 2. The class given is cell-based. The note with it: Homo sapiens, read-out: inhibition at 300 nM concentrations. Here is the method: (§1) Proliferation inhibition assay. Cancer cells were seeded into 24-well plates at a density of 20,000 cells per well in 1 mL of culture medium and cultured overnight at 37° C. Compounds and the vehicle control DMSO were added to the cells. After 6 days, medium was removed and 100 μL of trypsin was added. Then the cells resuspended in pbs were counted by Vi-CELL XR 2.03 (Beckman Coulter, Inc. USA). The ratio R of the number of viable cells in the compound treatment group to the number of viable cells in DMSO treatment group was taken as relative growth, and the percentage growth inhibition was calculated as: (1−R)*100. For initial testing, compounds were added to the cells at a final concentration 10 μM. Active compounds at 10 μM would be tested at lower concentrations.

Series [1] has as its system PC-3, LS174T, A549, MCF-7, Ovcar-8 and NCI/ADR-RES. The experiment in a line: Inhibition of various cancer cell lines, five-day treatment (FIG. 2A). The class given is cell-based. Particulars: 120 h. The protocol:
The inhibitory effects of aurones 4a and 4r were determined on various cancer cell lines including prostate cancer PC-3, colorectal cancer LS174T, lung cancer A549, breast cancer MCF-7, and ovarian cancer Ovcar-8 and NCI/ADR-RES (Tables 1-3, FIG. 2A).
Cell Culture. LS174T (colon cancer cells), PC-3 (prostate cancer cells), MCF-7 (beast) and A549 (lung) were cultured in the medium recommended by American Type Culture Collection at 37° C. with 5% CO2 atmosphere in a water jacketed incubator. Ovcar-8 and NCI/ADR-RES are gifts from Dr. Markos Leggas. Alpha-tubulin antibodies, TRITC-conjugated anti-rabbit antibody.
as §1, with “After 6 days, medium was removed and 100 μL of trypsin was added.” left out

The next series has as its system PC-3 tumor xenografts. The experiment in a line: PC-3 xenografts in nude mice. It is filed as in vivo. The note with it: 10 mg/kg/day. The protocol:
PC-3 cells suspended in PBS were subcutaneously injected to the lower flanks of immune-deficient nude mice at a density of 2×10^6 cells/200 ul (PBS). After tumor establishment, 4A formulated in tween80 (5%), DMSO (10%), PEG400 (25%) and PBS (60%) were administered in an intraperitoneal fashion to mice at a daily dose of 10 mg (compound)/kg (mouse). Blank vehicle was used as a control. Tumors and mouse weights were measured and tumor volumes were calculated as Length×width^2/2.

A further series relates to PC-3 cells. The experiment in a line: Immunofluorescence imaging of tubulin networks. The class given is cell-based. Particulars: α-tubulin immunofluorescence. The protocol: Tubulin networks were examined by confocal immunofluorescence imaging. Briefly, PC3 cells were placed at a density of 80,000/mL to 24-well plates equipped with round microscope glass cover slides. After culturing at 37° C. for 24 hours, DMSO or compounds were added to the cells and incubated for additional 6 hours. Then the medium was removed and the cells were washed with pbs three times. Primary anti-α-tubulin antibody was added and incubated overnight at 4° C. After additional washing, secondary TRITC-conjugated anti-rabbit antibody was added for 40 min, followed by additional washing and staining with DAPI. Final washing was performed and the cover slides were inverted onto glass slides. Images (40×) were taken using a Nikon confocal microscope with excitation at 557 nm and emission at 576 nm.

The subject of series [2] is LS174T colon and PC3 prostate cancer cells. Briefly: Combination with CDK inhibitor R03306, proliferation. The class given is cell-based.

SMILES strings stand for the structures. “Also recorded” adds a separate entry of the source.

For orientation: GI50 means the concentration giving 50% growth inhibition. Read a low GI50 as more potent growth inhibition. The term IC50 denotes the concentration needed to halve the response being measured. A lower IC50 goes with inhibition by little substance. `CCn1cc(/C=C2\Oc3cc(OCC#N)ccc3C2=O)c2cc(OC)ccc21` [Aurone 4a, (Z)-2-((2-((1-Ethyl-5-methoxy-1H-indol-3-yl)methylene)-3-oxo-2,3-dihydrobenzofuran-6-yl)oxy)acetonitrile]: the GI50 in the series on A549(ATCC) is 5.1 µM; in the series on EKVX it was 2730 nM; in the series with NCI-H226 it was 57.4 µM; with NCI-H522, 3.13 µM; in the series with HCC-2998 it was 3.44 µM; in the series with OVCAR-4 it was 19 µM. Besides, the concentration for 50% growth inhibition (GI50) in the series on A498 turned out to be 10.3 µM. For the same molecule, the half-maximal inhibitory concentration (IC50) with CCRF-CEM is 244 nM; with DND41 it was 210 nM; in the series on Jurkat, 273 nM; in the series with HBP-ALL it was 94 nM; in the series on Loucy, 334 nM; with MOLT-4 it was 241 nM. Moreover, the IC50 is 234 nM in the series on Molt-16, 272 nM with Nalm-16, 1250 nM with NCI-BL2009 and 50 to 300 nM in [1]. The inhibition at 0.3 µM in the series on PC-3 and LS174T cells was > 90%. The “gross toxicity / body weights of treated mice” value in the series on PC-3 tumor xenografts was “without significant effects on body weights; also recorded: no apparent gross toxicity; also recorded: no general toxicity”. In the series with PC-3 tumor xenografts (intraperitoneal), the “in vivo tumor inhibitory effect” value was “inhibited PC-3 tumor xenografts; also recorded: significant, tumor-growth suppression”. In addition, in the series on PC-3 cells, the microtubule structures result is “inhibited microtubule structures”. Further, the “combination effect with R03306 on proliferation” value in series [2] is listed as “synergistic effects”.
